Experimental data taken from patent US9254292B2, “Fused tetracycle derivatives and methods of use thereof for the treatment of viral diseases” (Merck Sharp & Dohme Corp., priority 2010, dated 2016).
pEC50: −log10 of the molar value.

What was measured:
HCV replicon 1a Y93H = test: Cell-based HCV replicon assay, genotype 1a Y93H mutant; conditions: Hepatitis C virus, 72 h, read-out: Replicon EC50 1a Y93H
Protocol: To measure cell-based anti-HCV activity of selected compounds of the present invention, replicon cells were seeded at 5000 cells/well in 96-well collagen I-coated Nunc plates in the presence of the test compound. Various concentrations of test compound, typically in 10 serial 2-fold dilutions, were added to the assay mixture, with the starting concentration ranging from 250 μM to 1 μM. The final concentration of DMSO was 0.5%, fetal bovine serum was 5%, in the assay media. Cells were harvested on day 3 by the addition of 1× cell lysis buffer (Ambion cat #8721). The replicon RNA level was measured using real time PCR (Taqman assay). The amplicon was located in 5B. The PCR primers were: 5B.2F, ATGGACAGGCGCCCTGA (SEQ ID NO. 1); 5B.2R, […] (SEQ ID NO. 2); the probe sequence was FAM-labeled CACGCCATGCGCTGCGG (SEQ ID NO. 3). GAPDH RNA was used as endogenous control and was amplified in the same reaction as NS5B (multiplex PCR) using primers and VIC-labeled probe recommended by the manufacturer (PE Applied Biosystem). […] Alternatively, to quantitate the absolute amount of replicon RNA, a standard curve was established by including serially diluted T7 transcripts of replicon RNA in the Taqman assay. […]
(§1) HCV replicon assay data was calculated for selected compounds of the present invention using this method and is provided in the table below.

HCV replicon 1a WT = test: Cell-based HCV replicon assay, genotype 1a WT; set-up: species or system Hepatitis C virus; conditions: replicon cells, day 3, replicon RNA by real time PCR (Taqman)
Protocol: (§2) To measure cell-based anti-HCV activity of selected compounds of the present invention, replicon cells were seeded at 5000 cells/well in 96-well collagen I-coated Nunc plates in the presence of the test compound. Various concentrations of test compound, typically in 10 serial 2-fold dilutions, were added to the assay mixture, with the starting concentration ranging from 250 μM to 1 μM. The final concentration of DMSO was 0.5%, fetal bovine serum was 5%, in the assay media. Cells were harvested on day 3 by the addition of 1× cell lysis buffer (Ambion cat #8721). The replicon RNA level was measured using real time PCR (Taqman assay). The amplicon was located in 5B. The PCR primers were: 5B.2F, ATGGACAGGCGCCCTGA (SEQ ID NO. 1); 5B.2R, […] (SEQ ID NO. 2); the probe sequence was FAM-labeled CACGCCATGCGCTGCGG (SEQ ID NO. 3). GAPDH RNA was used as endogenous control and was amplified in the same reaction as NS5B (multiplex PCR) using primers and VIC-labeled probe recommended by the manufacturer (PE Applied Biosystem). The real-time RT-PCR reactions were run on ABI PRISM 7900HT Sequence Detection System using the following program: 48° C. for 30 minutes, 95° C. for 10 minutes, 40 cycles of 95° C. for 15 sec, 60° C. for 1 minutes The ΔCT values (CT5B-CTGAPDH) were plotted against the concentration of test compound and fitted to the sigmoid dose-response model using XLfit4 (MDL). EC50 was defined as the concentration of inhibitor necessary to achieve ΔCT=1 over the projected baseline; EC90 the concentration necessary to achieve ΔCT=3.2 over the baseline. Alternatively, to quantitate the absolute amount of replicon RNA, a standard curve was established by including serially diluted T7 transcripts of replicon RNA in the Taqman assay. All Taqman reagents were from PE Applied Biosystems. Such an assay procedure was described in detail in e.g. Malcolm et al., Antimicrobial Agents and Chemotherapy 50: 1013-1020 (2006).
as §1

HCV replicon 1b WT = test: Cell-based HCV replicon assay, genotype 1b WT; set-up: species or system Hepatitis C virus; conditions: replicon cells, day 3, replicon RNA by real time PCR (Taqman)
Protocol: as §2, §1

Compound | pEC50 (HCV replicon 1a Y93H) | pEC50 (HCV replicon 1a WT; Hepatitis C virus, 72 h) | pEC50 (HCV replicon 1b WT; Hepatitis C virus, 72 h) | pEC50 (HCV replicon 1a WT) | pEC50 (HCV replicon 1b WT)
COC(=O)N[C@H](C(=O)N1CCC[C@H]1c1ncc(-c2ccc3c(c2)OCCc2c-3oc3ccc(-c4cnc([C@@H]5CCCN5C(=O)[C@@H](NC(=O)OC)C(C)C)[nH]4)cc23)[nH]1)C(C)C [Compound 5] | 6.73 | 10.82 | 12.00 |  | 
COC(=O)NC(C(=O)N1CCC[C@@H]1c1ncc(-c2ccc3c(c2)c(F)c2n3CCOc3cc(-c4cnc(C5CCCN5C(=O)[C@@H](NC(=O)OC)C(C)C)[nH]4)ccc3-2)[nH]1)C(C)C (some centres unmarked) [Compound 11] |  |  |  | 11.00 | 11.30
COC(=O)NC(C(=O)N1CCC[C@@H]1c1ncc(-c2ccc3c(c2)c(F)c2n3CCOc3cc(-c4cnc(C5CCCN5C(=O)[C@@H](NC(=O)OC)C(C)C)[nH]4)ccc3-2)[nH]1)C(C)C (some centres unmarked) [Compound 10] |  |  |  | 8.70 | 9.15
COC(=O)NC(C(=O)N1CCC[C@H]1c1ncc(-c2ccc3c(c2)cc2n3CCOc3cc(-c4cnc(C5CCCN5C(=O)[C@@H](NC(=O)OC)C(C)C)[nH]4)ccc3-2)[nH]1)C(C)C (some centres unmarked) [Compound 7] | 6.25 | 11.00 | 11.52 |  | 
COC(=O)NC(C(=O)N1CCC[C@H]1c1ncc(-c2ccc3c(c2)c(F)c2n3CCOc3cc(-c4cnc(C5CCCN5C(=O)[C@@H](NC(=O)OC)C(C)C)[nH]4)ccc3-2)[nH]1)C(C)C (some centres unmarked) [Compound 8] |  |  |  | 10.80 | 11.15
COC(=O)NC(C(=O)N1CCC[C@H]1c1ncc(-c2ccc3c(c2)c(F)c2n3CCOc3cc(-c4cnc(C5CCCN5C(=O)[C@@H](NC(=O)OC)C(C)C)[nH]4)ccc3-2)[nH]1)C(C)C (some centres unmarked) [Compound 9] |  |  |  | 8.93 | 9.57
